Molecules are shown by their SMILES. Entries after “also recorded” stand apart in the source; their conditions may differ.

The nature of one data set: Cytotoxicity assay (MTT). To be noted: dog.
The next data set relates to hemagglutinin. Kind of data set: Western blot of viral protein synthesis in H1N1-infected MDCK cells, hemagglutinin. To be noted: 5, 10, 20, and 40 μM, 24 h. (In general: Immunoblotting shows a protein as a band on a membrane.)
The next data set has as its system neuraminidase. In words: Western blot of viral protein synthesis in H1N1-infected MDCK cells, neuraminidase. To be noted: 5, 10, 20, and 40 μM, 24 h.
A further data set is described as follows: in vitro. Conditions: dog.

Regarding `Oc1cc(O)cc(Oc2c(O)cc(O)c3c2Oc2c(O)cc(Oc4c(O)cc(Oc5c(O)cc(O)c6c5Oc5c(O)cc(O)cc5O6)cc4O)cc2O3)c1` [Compound 11, Dieckol], the CC50 at 48 h in “Cytotoxicity assay (MTT)” was over 100 µM. In the case of `Oc1cc(O)cc(Oc2c(O)cc(O)c3c2Oc2c(O)cc4oc5c(Oc6cc(O)cc(O)c6)c(O)cc(O)c5c4c2O3)c1` [Compound 12, Phlorofucofuroeckol A], in the data set on hemagglutinin, the “inhibition of hemagglutinin expression (viral protein synthesis, Western blot)” value was “decreased the expression of neuraminidase and hemagglutinin at 10 μM; also recorded: strongest inhibition capacity was observed at 40 µM; also recorded: strong inhibitory effects”. For the same compound, the “inhibition of neuraminidase expression (viral protein synthesis, Western blot)” value in the data set with neuraminidase was “decreased the expression of neuraminidase and hemagglutinin at 10 μM; also recorded: strongest inhibition capacity was observed at 40 µM; also recorded: strong inhibitory effects”. In the data set “Cytotoxicity assay (MTT)”, the CC50 at 48 h was over 100 µM. Regarding `Oc1cc(O)c2c(c1)Oc1c(O)cc(O)cc1O2` [Compound 13, Dibenzo[1,4]dioxine-2,4,7,9-tetraol], in “Cytotoxicity assay (MTT)”, the CC50 at 48 h was over 100 µM.

In turn, `Oc1cc(O)c2oc3cc(O)c4oc5cc(O)cc(O)c5oc4c3oc2c1` [Compound 14, Dioxinodehydroeckol] had a CC50 at 48 h in the data set “in vitro” of over 100 µM.

Values taken from publication PMC6471242, “Dereplication by High-Performance Liquid Chromatography (HPLC) with Quadrupole-Time-of-Flight Mass Spectroscopy (qTOF-MS) and Antiviral Activities of Phlorotannins from Ecklonia cava” (Marine Drugs, 2019).
